According to ChEMBL document CHEMBL1127558, “Synthesis and characterization of selective fluorescent ligands for the neurokinin NK2 receptor” (J Med Chem, 1994):
Numbered stars: 1 amine (or outer) side, 2 acyl side, 3 side chain; on linkers, the order of the positions; unused ones are H or OH. Square brackets hold non-standard residues; d marks the D form. Peptide text beside a SMILES is read from it. * marks the point of attachment. X1 = C[C@@H](C(=O)[*:2])N(c1ccc([N+](=O)[O-])c2nonc12)[*:1]; Nle = CCCC[C@H](N)C(=O)O; Bz = O=C(c1ccccc1)*

Biological target: T1, Substance-K receptor (Homo sapiens, UniProt P21452)
T1 sequence (P21452 whole entry): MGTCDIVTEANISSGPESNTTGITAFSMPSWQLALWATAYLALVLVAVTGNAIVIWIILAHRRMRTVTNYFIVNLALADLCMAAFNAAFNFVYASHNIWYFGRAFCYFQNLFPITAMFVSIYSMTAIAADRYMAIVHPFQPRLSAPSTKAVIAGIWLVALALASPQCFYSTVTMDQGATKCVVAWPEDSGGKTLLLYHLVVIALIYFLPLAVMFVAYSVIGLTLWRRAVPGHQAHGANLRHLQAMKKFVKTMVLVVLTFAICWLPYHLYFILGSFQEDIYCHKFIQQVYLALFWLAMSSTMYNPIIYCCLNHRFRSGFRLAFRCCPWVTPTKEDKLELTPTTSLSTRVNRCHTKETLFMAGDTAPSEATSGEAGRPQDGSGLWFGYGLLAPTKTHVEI
Test: Binding affinity against human NK2 receptors expressed in CHO cells using [3H]GR-100679 as radioligand
Format: cell-based

Compound | Ki [µM] | Log Ki (cho)
CCCC[C@H](NC(=O)[C@@H]1CCCN1C(=O)[C@@H]1CCCN1C(=O)[C@H](Cc1ccccc1)NC(=O)[C@H](Cc1c[nH]c2ccccc12)NC(=O)[C@H](C)NC(=O)[C@H](C)NC(=O)c1ccccc1)C(N)=O (Bz-AAWFPP[Nle]-NH2) | 0.000155 | 
CCCC[C@H](NC(=O)[C@@H]1CCCN1C(=O)[C@H]1CCCN1C(=O)[C@H](Cc1ccccc1)NC(=O)[C@@H](Cc1c[nH]c2ccccc12)NC(=O)[C@H](C)NC(=O)[C@H](CCCCNC(=S)Nc1ccc2c(c1)C(=O)OC21c2ccc(O)cc2Oc2cc(O)ccc21)NC(=O)c1ccccc1)C(N)=O | 0.0245 | 
CCCC[C@H](NC(=O)[C@@H]1CCCN1C(=O)[C@H]1CCCN1C(=O)[C@H](Cc1ccccc1)NC(=O)[C@@H](Cc1c[nH]c2ccccc12)NC(=O)[C@H](C)NC(=O)[C@H](C)/N=C(/S)Nc1ccc2c(c1)C(=O)OC21c2ccc(O)cc2Oc2cc(O)ccc21)C(N)=O |  | -5.99
CCCC[C@H](NC(=O)[C@@H]1CCCN1C(=O)[C@@H]1CCCN1C(=O)[C@H](Cc1ccccc1)NC(=O)[C@H](Cc1c[nH]c2ccccc12)NC(=O)[C@H](C)NC(=O)[C@H](C)Nc1ccc([N+](=O)[O-])c2nonc12)C(N)=O (H-[X1]AWFPP[Nle]-NH2) | 0.0871 | 
